Test [1] has as its system HTLV-IIIB strain of HIV-1. Briefly: Viability (MTT) of HIV-1-infected MT-2 cells, AZT-acemannan checkerboard. In kind it is cell-based. The protocol: Virus Strains - The HTLV-IIIB strain of HIV-1 was obtained from Dr. R. Gallo, NIH, Bethesda, Maryland. Viral stocks were prepared by propagating the virus in H9 lymphoid cells. A stock preparation of the virus was stored at -80°C. The 50% tissue culture infective dose (TCID50)/ml of cell-free virus pool stock was determined by end-point titration using MT-2 cells. Multiplicity of infection (MOI) was determined by the method of Reed and Muench.
Cell Lines - MT-2 cells were propagated in RPMI-1640 supplemented with 2 mM L-glutamine and 15% (v/v) fetal bovine serum. MT-2 cells naturally express CD4 on their surface and are thus good target cells for HIV-1 infection. In addition, they rapidly undergo cytolysis at low levels of virus replication.
Primary testing of antiviral activity - MT-2 cells were first treated with polybrene (2 mg/ml) for 30 min and then infected with HIV at a MOI of 0.03. After virus absorption, the cells were pelleted and resuspended in complete medium. […] Parallel assays were performed in triplicate, and drug cytotoxicity was measured at parallel concentrations in duplicate. […] On day 7 post-infection, cell viability was measured by the addition of MTT (450 µg/ml) to the test plates. […] Plates were read at a wavelength of 570 nm on a Vmax plate reader (Molecular Devices, Inc.). The percent change in cell viability was calculated using the following formula: % change in cell viability =((TI-TO)-(OI-TO))/((OO-TO)-(OI-TO))x 100 [formula] where: • TI is the optical density (OD) in treated, infected cells, • TO is the OD in treated, uninfected cells, • OI is the OD in untreated, infected cells, and • OO is the OD in untreated, uninfected cells.
Antiviral activity of acemannan-AZT combinations - Antiviral activity of acemannan in combination with AZT at various concentrations was evaluated using the microtiter infection assay described above. […] Combinations were evaluated in duplicate, and treated uninfected controls were used to determine drug cytotoxicity. Each compound was also evaluated alone at non-cytotoxic concentrations. […]

The next test deals with HIV. Description: Phase II double-blind study of acemannan alone and with AZT. The note with it: ARC patients, 24 weeks. In kind it is in vivo. Here is the method: Forty-seven HIV+ patients (23 asymptomatic patients, 24 ARC patients) participated in a double-blind randomized phase II study of acemannan. The protocol was approved by the relevant ethical committees of the Hospital St. Pierre in Brussels, Belgium. In order to evaluate safety and tolerance, with or without concomitant AZT therapy, acemannan was administered during 24 weeks at a daily dose of 1000 mg (2 capsules of 125 mg, 4 times daily). The 23 asymptomatic patients were blindly allocated to receive either acemannan (11 patients, group 1) or placebo (12 patients, group 2). Of the 24 ARC patients who received 1000 mg AZT daily during the study, 12 patients (group 3) also received acemannan 1000 mg (2 capsules of 125 mg, 4 times daily) and 12 patients (group 4) also received placebo.

We go through one molecule from patent EP0965346A2, “Use of acetylated mannan derivatives for treating chronic respiratory diseases” (CARRINGTON LABORATORIES, INC., priority 1991, dated 1993).

The structures appear in SMILES notation.

Turning to `Cc1cn([C@H]2C[C@H](N=[N+]=[N-])[C@@H](CO)O2)c(=O)[nH]c1=O` [AZT, Zidovudine], the protection result was “neither of which was protective on its own” in test [1] (0.01 µg/ml AZT alone) and 65% in test [1] (0.32 µg/ml AZT alone). Moreover, the maximum protection in test [1] (AZT alone, 0.03 to 0.32 µg/ml, MOI 0.03) is given as 60-67%. The “patients who developed AIDS” value with HIV (12 per group) is reported as 2 patients. The “mean Karnofsky score at exit” value in the test on HIV (AZT 1000 mg daily, acemannan 1000 mg daily, entry 84 (combination), 81 (AZT alone)) was found to be 83. Besides, the “mean CD4 at exit” value with HIV (entry 263/mm3 (combination), 145/mm3 (AZT alone)) is 252 /mm3.
